According to article PMC8119466, “A screen of FDA-approved drugs identifies inhibitors of protein tyrosine phosphatase 4A3 (PTP4A3 or PRL-3)” (Scientific Reports, 2021):
Where a name gives a salt, the structure may show the parent alone. Read-outs that look alike come from different tables or passages of the source.

Assays:
Format in all cases: biochemical
[1] = target: T1, recombinant PRL-1 (Homo sapiens, UniProt Q93096); assay: In vitro phosphatase assay (DiFMUP hydrolysis), PRL-1
T1 construct: 6xHis (N, cleaved yes); made in house; host or cells: E. coli One Shot BL21 Star
T1 sequence (Q93096 1-173): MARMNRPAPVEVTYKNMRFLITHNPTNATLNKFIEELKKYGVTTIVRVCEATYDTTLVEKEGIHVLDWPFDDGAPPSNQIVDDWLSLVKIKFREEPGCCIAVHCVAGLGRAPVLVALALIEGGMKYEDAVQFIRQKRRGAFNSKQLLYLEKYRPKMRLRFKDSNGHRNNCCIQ

[2] = target: T2, recombinant PRL-2 (Homo sapiens, UniProt Q12974); assay: In vitro phosphatase assay (DiFMUP hydrolysis), PRL-2;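 note: PRL-2 activity read as DiFMUP hydrolysis after 20 min at room temperature with drug, enzyme first pre-reduced at 4 °C for 20 min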
T2 construct: 6xHis (N, cleaved yes); made in house; host or cells: E. coli One Shot BL21 Star
T2 sequence (Q12974 1-167): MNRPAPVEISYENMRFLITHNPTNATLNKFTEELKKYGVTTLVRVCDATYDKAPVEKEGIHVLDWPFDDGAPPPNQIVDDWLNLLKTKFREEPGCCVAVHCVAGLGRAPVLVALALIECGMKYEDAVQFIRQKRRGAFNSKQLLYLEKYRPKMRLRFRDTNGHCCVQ

[3] = target: T3, recombinant PRL-3 (Homo sapiens, UniProt O75365); assay: In vitro phosphatase assay (DiFMUP hydrolysis), PRL-3
T3 construct: 6xHis (N, cleaved yes); made in house; host or cells: E. coli One Shot BL21 Star

[4] = FDA-approved drug screen, compared to DMSO
[5] = FDA-approved drug screen, activity compared to DMSO

T3 sequence (O75365 whole entry): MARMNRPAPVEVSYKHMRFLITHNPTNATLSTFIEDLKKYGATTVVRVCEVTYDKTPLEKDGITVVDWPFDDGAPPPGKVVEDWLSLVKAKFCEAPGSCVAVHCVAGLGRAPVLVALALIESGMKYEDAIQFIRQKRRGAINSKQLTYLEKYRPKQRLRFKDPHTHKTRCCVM

Compound	% Phosphatase Activity (compared to DMSO) PRL-1 [1, 4]	% Phosphatase Activity (compared to DMSO) PRL-2 [2, 4]	% Phosphatase Activity (compared to DMSO) PRL-3 [3, 4]	also measured
Cc1cc(C(C)(C)C)c(O)c(C)c1CC1=NCCN1 [Oxymetazoline hydrochloride]	99%	118%	82%	–
CCCCC(CC)COC(=O)CC(C(=O)OCC(CC)CCCC)S(=O)(=O)O (stereo not drawn) [Docusate Sodium, reference compound]	–	–	–	% Phosphatase Activity (compared to DMSO) PRL-1 [1]: 64%; IC50 ([1]; 2.5 µM protein, DiFMUP at KM, read-out: Calculated IC50, PRL-1 phosphatase activity): 94 ± 26 µM; % Phosphatase Activity (compared to DMSO) PRL-2 [2]: 63%; IC50 ([2]; 2.5 µM protein, DiFMUP at KM, read-out: Calculated IC50, PRL-2 phosphatase activity): 140 ± 44 µM; % Phosphatase Activity (compared to DMSO) PRL-3 [3]: 34%; IC50 ([3]; 2.5 µM protein, DiFMUP at KM, read-out: Calculated IC50, PRL-3 phosphatase activity): 43 ± 5 µM
CNC[C@H](O)[C@@H](O)[C@H](O)[C@H](O)CO.Cc1c(Nc2ncccc2C(=O)O)cccc1C(F)(F)F [Flunixin Meglumin]	94%	88%	80%	–
CCN(CC)CC#CCOC(=O)C(O)(c1ccccc1)C1CCCCC1 (stereo not drawn) [Oxybutynin chloride]	88%	85%	75%	–
O.S=c1[nH]cnc2nc[nH]c12 [6-Mercaptopurine (6-MP) Monohydrate]	95%	108%	85%	–
CCN1CCN(c2cc3c(cc2F)c(=O)c(C(=O)O)cn3C2CC2)CC1 [Enrofloxacin]	152%	176%	118%	–
CN1CC[C@H](c2c(O)cc(O)c3c(=O)cc(-c4ccccc4Cl)oc23)[C@H](O)C1 [Flavopiridol (Alvocidib)]	92%	82%	68%	–
CN1CCCC(n2nc(Cc3ccc(Cl)cc3)c3ccccc3c2=O)CC1 (stereo not drawn) [Azelastine HCl]	121%	113%	87%	–
CCCC(CCC)C(=O)O [Divalproex Sodium]	105%	94%	77%	–
CN(C)c1nc(N(C)C)nc(N(C)C)n1 [Altretamine]	89%	89%	71%	–
COc1ccc([C@@H]2Sc3ccccc3N(CCN(C)C)C(=O)[C@@H]2OC(C)=O)cc1 [Diltiazem HCl]	94%	111%	124%	–
CC(C)OC(=O)C(C)(C)Oc1ccc(C(=O)c2ccc(Cl)cc2)cc1 [Fenofibrate]	88%	89%	101%	–
Cl.Cl.OCCN1CCN(CCCN2c3ccccc3Sc3ccc(C(F)(F)F)cc32)CC1 [Fluphenazine (dihydrochloride)]	94%	101%	88%	–
CCCCCCc1ccc(O)cc1O [Hexylresorcinol]	90%	83%	84%	–
C[C@@H]1O[C@@H](OC[C@H]2O[C@@H](Oc3c(-c4ccc(O)c(O)c4)oc4cc(O)cc(O)c4c3=O)[C@H](O)[C@@H](O)[C@@H]2O)[C@H](O)[C@H](O)[C@H]1O [Rutin]	88%	82%	71%	–
O=C(CCCCCCC(=O)Nc1ccccc1)NO [Vorinostat (SAHA, MK0683)]	–	–	–	% Phosphatase Activity (compared to DMSO) PRL-1 [1, 5]: 98%; % Phosphatase Activity (compared to DMSO) PRL-2 [2, 5]: 89%; % Phosphatase Activity (compared to DMSO) PRL-3 [3, 5]: 92%
C[C@H]1O[C@@H](O[C@H]2[C@@H](O)C[C@H](O[C@H]3[C@@H](O)C[C@H](O[C@H]4CC[C@@]5(C)[C@H](CC[C@@H]6[C@@H]5C[C@@H](O)[C@]5(C)[C@@H](C7=CC(=O)OC7)CC[C@]65O)C4)O[C@@H]3C)O[C@@H]2C)C[C@H](O)[C@@H]1O [Digoxin]	102%	95%	76%	–
CC1(C)OC(=O)NC1=O [5,5-Dimethyloxazolidine-2,4-dione]	94%	94%	82%	–
NC[C@H]1O[C@H](O[C@H]2[C@H](O)[C@@H](O[C@H]3O[C@H](CO)[C@@H](O)[C@H](N)[C@H]3O)[C@H](N)C[C@@H]2N)[C@H](N)C[C@@H]1O [Tobramycin]	–	–	–	% Phosphatase Activity (compared to DMSO) PRL-1 [1, 5]: 99%; % Phosphatase Activity (compared to DMSO) PRL-2 [2, 5]: 97%; % Phosphatase Activity (compared to DMSO) PRL-3 [3, 5]: 91%

Compound	% Phosphatase Activity (compared to DMSO) PRL-1 [1, 4]	% Phosphatase Activity (compared to DMSO) PRL-2 [2, 4]	% Phosphatase Activity (compared to DMSO) PRL-3 [3, 4]	also measured
CC(C)NC[C@@H](O)COc1ccc(CC(N)=O)cc1 [(R)-(+)-Atenolol]	113%	109%	74%	–
CN[C@H]1CC[C@@H](c2ccc(Cl)c(Cl)c2)c2ccccc21 [Sertraline HCl]	–	–	–	% Phosphatase Activity (compared to DMSO) PRL-1 [1, 5]: 96%; % Phosphatase Activity (compared to DMSO) PRL-2 [2, 5]: 101%; % Phosphatase Activity (compared to DMSO) PRL-3 [3, 5]: 75%
COC(=O)CCc1ccc(OCC(O)CNC(C)C)cc1 (stereo not drawn) [Esmolol HCl]	93%	101%	73%	–
COC(=O)[C@H]1[C@H]2C[C@@H]3c4[nH]c5cc(OC)ccc5c4CCN3C[C@H]2C[C@@H](OC(=O)c2cc(OC)c(OC)c(OC)c2)[C@@H]1OC [Reserpine]	110%	105%	92%	–
CC(=O)N[C@@H](CS)C(=O)O [Acetylcysteine]	89%	99%	70%	–
CCOc1ccc(Cc2cc([C@@H]3O[C@H](CO)[C@@H](O)[C@H](O)[C@H]3O)ccc2Cl)cc1 [Dapagliflozin]	–	–	–	% Phosphatase Activity (compared to DMSO) PRL-1 [1]: 98%; % Phosphatase Activity (compared to DMSO) PRL-2 [2]: 91%; % Phosphatase Activity (compared to DMSO) PRL-3 [3]: 89%
Cc1ccc(S(=O)(=O)NC(=O)NN2CC3CCCC3C2)cc1 (stereo not drawn) [Gliclazide]	112%	138%	94%	–
CCOC(=O)[C@H](CCc1ccccc1)N[C@@H](C)C(=O)N1[C@H](C(=O)O)C[C@@H]2CCC[C@@H]21 [Ramipril]	84%	86%	93%	–
COc1cc2nc(N3CCN(C(=O)C4CCCO4)CC3)nc(N)c2cc1OC (stereo not drawn) [Terazosin HCl]	–	–	–	% Phosphatase Activity (compared to DMSO) PRL-1 [1, 5]: 510%; % Phosphatase Activity (compared to DMSO) PRL-2 [2, 5]: 644%; % Phosphatase Activity (compared to DMSO) PRL-3 [3, 5]: 324%
CCOC(=O)[C@H](CCc1ccccc1)N[C@@H](C)C(=O)N1Cc2ccccc2C[C@H]1C(=O)O [Quinapril HCl]	92%	106%	80%	–
CC1(C)CCC(C)(C)c2cc(NC(=O)c3ccc(C(=O)O)cc3)ccc21 [Tamibarotene]	–	–	–	% Phosphatase Activity (compared to DMSO) PRL-1 [1, 5]: 93%; % Phosphatase Activity (compared to DMSO) PRL-2 [2, 5]: 80%; % Phosphatase Activity (compared to DMSO) PRL-3 [3, 5]: 73%
Clc1ccc(C(Cn2ccnc2)OCc2c(Cl)cccc2Cl)c(Cl)c1 (stereo not drawn) [Isoconazole nitrate]	112%	110%	89%	–
COc1ccccc1OCC(O)CN1CCN(CC(=O)Nc2c(C)cccc2C)CC1 (stereo not drawn) [Ranolazine]	90%	99%	118%	–
CN(C)CCC=C1c2ccccc2C=Cc2ccccc21 [Cyclobenzaprine HCl]	–	–	–	% Phosphatase Activity (compared to DMSO) PRL-1 [1]: 104%; % Phosphatase Activity (compared to DMSO) PRL-2 [2]: 103%; % Phosphatase Activity (compared to DMSO) PRL-3 [3]: 85%
CNC(=C[N+](=O)[O-])NCCSCc1ccc(CN(C)C)o1 [Ranitidine]	93%	102%	103%	–
CCCCCOC(=O)Nc1nc(=O)n([C@@H]2O[C@H](C)[C@@H](O)[C@H]2O)cc1F [Capecitabine]	108%	123%	97%	–
COc1cc2ncnc(Nc3ccc(F)c(Cl)c3)c2cc1NC(=O)/C=C/CN1CCCCC1 [Dacomitinib (PF299804, PF299)]	145%	147%	120%	–
CCCCC[C@H](O)/C=C/[C@H]1[C@H](O)CC(=O)[C@@H]1CCCCCCC(=O)O [Alprostadil]	117%	113%	98%	–
